Source: patent US5739319A, “Phthalocyanine or naphthalocyanine derivative” (Orient Chemical Industries, Ltd., priority 1995, dated 1998)

How the values were obtained:
[1] = background statement, in words; cited from earlier work
[2] = Solubility at room temperature; format: physicochemical; conditions: for Solubility, Acetone: in words
Procedure: Then, solubility at room temperature of the resulting compound is measured.

| Substance | solubility in an organic solvent [1] | water-solubility [1] | Solubility, DMF [2] [%] | Solubility, Acetone [2] | Solubility, Dilute aqueous alkaline solution [2] [%] | Solubility, Methanol [2] [%] | Solubility, Water [2] [%] |
| --- | --- | --- | --- | --- | --- | --- | --- |
| C.I. Solvent Blue-70 | soluble in an organic solvent |  |  |  |  |  |  |
| Tetrasulfonic acid copper phthalocyanine [C.I. Acid Blue-249] |  | insufficient |  |  |  |  |  |
| tetrakis(sulfobenzamide) copper naphthalocyanine [Example 5] |  |  | > 2.0 | insoluble | < 1.5 | < 0.1 |  |
| tetrakis(sulfobenzamide) copper phthalocyanine [Example 1] |  |  |  | insoluble |  | > 5 | > 10 |
| tetrakis(sulfobenzamide) nickel naphthalocyanine [Example 4] |  |  | > 2.0 | insoluble | < 1.5 | < 0.1 |  |
| tetrakis(sulfobenzamide) phthalocyanine [Example 2] |  |  |  | insoluble |  | > 5 | > 10 |
